Consider 19 compounds from patent US6933322B2, “Substituted naphthylenes for the treatment of non-insulin dependent diabetes mellitus” (Wyeth, priority 2002, dated 2005).

For series [1], the system named is diabetic ob/ob mice. Description: Hypoglycemic effect in diabetic ob/ob mice. It is filed as in vivo, mouse. The protocol: Hypoglycemic Effect in Diabetic OB/OB Mice
Procedure: In each study, male or female ob/ob (C57 B1/6J) mice and their mean litermates (ob/+ or +/+, Jackson Laboratories) ages 2 to 5 months (10 to 65 g) were randomized according to plasma glucose into 4 groups of 10 mice. The mice were housed 5 per cage and were maintained on normal rodent chow with water ad libitum. Mice receive compound daily by gavage (suspended in 0.5 ml of 0.5% methyl cellulose); dissolved in the drinking water; or admixed in the diet. The dose of compounds given ranges from 2.5 to 200 mg/kg body weight/day. Body weight of fed animals was measured at the beginning of each week and doses for the entire week were calculated using this weight and were expressed in terms of the active moiety of the compound. Control mice receive vehicle only. […]
Measurements: The plasma was isolated by centrifugation and the concentration of glucose was measured enzymatically on an Abbott V. P. Analyzer and the plasma concentration of insulin was determined by radioimmunoassay (Heding, 1972)
Analysis of variance followed by Dunnett's Comparison Test (one-tailed) was used to estimate the significant difference between the plasma glucose values from the control group and the individual compound treated groups (CMS SAS Release 5.18). A compound will be considered active if the difference has a p<0.05.

Series [2] concerns hepatocytes isolated and cultured from obese Zucker (fa/fa) rats. Description: Inhibition of glucose output from hepatocytes isolated and cultured from obese Zucker (fa/fa) rats. It is filed as cell-based, rat. To be noted: inhibition of glucose output compared to glucagon stimulated cells. The protocol:
Inhibition of Glucose Output from Hepatocytes Isolated and Cultured from Obese Zucker (fa/fa) Rats and Their Lean Controls
Culturing of Hepatocytes: Isolated hepatocytes were plated on 12 well rat-tail collagen coated plates at a cell density of 5×10(5) cells/ml (approximately 1 ml of cell suspension per well). Following a one hour attachment period in which plates were incubated in a CO2 incubator at 37 deg C. (95% O2, 5% CO2), the supernatant containing unattached hepatocytes was removed and replaced with fresh media (1 ml/well) containing 1 μM dexamethasone and 100 pM insulin. Cells were maintained at 37 deg C. for 48 hours in a 95% O2, 5% CO2 environment. At the end of the first 24 hours, the media was aspirated off of the wells and replaced with fresh media containing the same concentrations of dexamethasone and insulin as described earlier. Treatment with Drugs and Assessment of Glucose Output: Drugs were routinely added with fresh media 24 hours after the initial attachment period. Eighteen hours later, media was aspirated and 500 μl of fresh Hank's buffer, Buffer D (glucose-free) supplemented with hormones, gluconeogenic substrates and drug(s) was added to each well and incubated for 4 hours. At the end of the 4 hour incubation, media from each well was removed and assayed for glucose content using the hexokinase/glucose-6-phosphate dehydrogenase coupled assay on the Boehringer Mannheim model 911 auto analyzer. Glucose concentration was expressed as μg/ml. Three of the plates from each treated group were frozen for subsequent determination of protein content. Two plates from each treatment group were used to assess the cytotoxicity of drug(s) and other agents as determined by the MTT (tetrazolium) dye reduction method (see below).
Protein test procedure: Three plates with no insulin treatment and three plates with 10^−8 M insulin treatment were used for protein determination. After supernatant has been removed for determination of glucose output the plates were frozen and stored at −20 deg C. until ready to assay for protein content. Prior to determination of protein the plates were defrosted at room temperature for 15 minutes. An aliquot of 1 ml 0.1 N NaOH was added to each well. Plates were incubated at 4 deg C. overnight. Solutions for measurement of protein content were mixed by pipetting the NaOH solution up and down several time with a 1 ml pipette and then transferring to a small polyethylene tube. Protein determination was based on that of the Pierce BCA protein assay protocol (Pierce cat. no. 23223). A set of protein standards (0.2, 0.4, 0.6, 0.8, and 1 mg/ml BSA) was prepared by serial dilution of 1 mg/ml bovine serum albumin with 0.1 N NaOH, and 40 μl of each standard, or control blank was pipetted into a 96-well plate in duplicate. Each unknown protein sample (40 μl) was tested in triplicate. An aliquot of 200 μl of BCA protein assay reagent (consisting of 50 parts Reagent A with 1 part Reagent B) was added to each well. Samples were mixed with a Titertek pipette. The microtiter plate was covered with sealing tape and incubated at room temperature for 1 hour. After incubation, the sealing tape was removed and absorbance measured on a plate reader (Uvmax kinetic microplate reader, Molecular Devices) at 570 nm. A standard curve was prepared by plotting the blank-corrected absorbance against known protein concentrations, and protein concentrations were then determined for each unknown.
Measurements and Calculations: Glucose output was calculated as μg glucose/mg protein/hour, and inhibition of glucose output was calculated as percent inhibition of glucose output when compared to glucagon stimulated cells. Cytotoxicity was determined using the MTT dye reduction assay and data were expressed as percent inhibition of MTT dye reduction compared to control cells. […]

As usually defined, the IC50 is the concentration at which inhibition is half-maximal. Regarding `O=S(=O)(Nc1ccc2c(OCc3cccc(-c4ccccc4)c3)cccc2c1)C(F)(F)F` [Example 27], in series [1] (10 mg/kg), the “REDUCTION IN PLASMA GLUCOSE Day 3 (6 hr) p.o.” value is listed as −31% (10 mg/kg). Besides, the IC50 in series [2] was determined as 7 µM.

In general, melting point refers to the temperature, or range, at which the solid turns liquid. With `O=S(=O)(Nc1ccc2c(OCc3ccc(-c4ccc(Cl)cc4)cc3Cl)cccc2c1)C(F)(F)F` [Example 31, N-[5-(3,4′-Dichloro-biphenyl-4-ylmethoxy)-naphthalen-2-yl]-C,C,C-trifluoro-methanesulfonamide], the melting point is 176 to 178 °C. In addition, in series [1] (5 mg/kg), the “REDUCTION IN PLASMA GLUCOSE Day 1 (6 hr) p.o.” value is recorded as −23% (5 mg/kg) and the “REDUCTION IN PLASMA GLUCOSE Day 3 (6 hr) p.o.” value is reported as −22% (5 mg/kg). In addition, the IC50 in series [2] (Rattus norvegicus, Hepatocyte) amounted to 2.6 µM.

`O=S(=O)(Nc1ccc2c(OCc3ccc(-c4cccc(Cl)c4)cc3)cccc2c1)C(F)(F)F` [Example 25, N-[5-(3′-Chloro-biphenyl-4-ylmethoxy)-naphthalen-2-yl]-C,C,C-trifluoromethanesulfonamide] came in with a melting point of 170 to 171 °C. For the same compound, in series [1] (10 mg/kg), the “REDUCTION IN PLASMA GLUCOSE Day 1 (6 hr) p.o.” value is −22% (10 mg/kg) and the “REDUCTION IN PLASMA GLUCOSE Day 3 (6 hr) p.o.” value is −24% (10 mg/kg).

The compound `O=S(=O)(Nc1ccc2c(OCc3ccc(-c4ccccc4)cc3F)cccc2c1)C(F)(F)F` [Example 4, C,C,C-Trifluoro-N-[5-(3-fluoro-biphenyl-4-ylmethoxy)-naphthalen-2-yl]-methanesulfonamide] yielded a melting point of 123 to 125 °C. Besides, in series [1] (10 mg/kg), the “REDUCTION IN PLASMA GLUCOSE Day 1 (6 hr) p.o.” value is −28% (10 mg/kg) and the “REDUCTION IN PLASMA GLUCOSE Day 3 (6 hr) p.o.” value is recorded as −37% (10 mg/kg).

In the case of `O=S(=O)(Nc1ccc2c(OCc3csc(-c4ccc(C(F)(F)F)cc4)n3)cccc2c1)C(F)(F)F` [Example 57, N-{5-[2-(4-trufluoromethyl-phenyl)-thiazol-4-ylmethoxy]-naphthalen-2-yl}-C,C,C-trifluoro-methanesulfonamide], in series [1] (10 mg/kg), the “REDUCTION IN PLASMA GLUCOSE Day 3 (6 hr) p.o.” value is recorded as −33% (10 mg/kg). This compound also registered an IC50 in series [2] of 1.5 µM.

In turn, `O=S(=O)(Nc1ccc2c(OCc3ccc(-c4ccc(C(F)(F)F)cc4)cc3F)cccc2c1)C(F)(F)F` [Example 5, C,C,C-Trifluoro-N-[5-(3-fluoro-4′-trifluoromethyl-biphenyl-4-ylmethoxy)-naphthalen-2-yl]-methanesulfonamide] gave a melting point of 98 to 100 °C. In series [2] (Rattus norvegicus, Hepatocyte), this compound showed an IC50 of 6.3 µM.

Regarding `Cc1oc(-c2ccc(C(F)(F)F)cc2)nc1COc1cccc2cc(NS(=O)(=O)C(F)(F)F)ccc12` [Example 81], in series [1] (5 mg/kg), the “REDUCTION IN PLASMA GLUCOSE Day 1 (6 hr) p.o.” value is −28% (5 mg/kg) and the “REDUCTION IN PLASMA GLUCOSE Day 3 (6 hr) p.o.” value is reported as −33% (5 mg/kg).

Turning to `O=S(=O)(Nc1ccc2c(OCc3cccc(OCc4ccc(-c5ccc6ccccc6c5)cc4)c3)cccc2c1)C(F)(F)F` [Example 14, N-[5-(4-naphthalen-2-yl-benzyloxy-3-ylmethoxy)-naphthalen-2-yl]-C,C,C-trifluoro-methanesulfonamide], the midpoint of inhibition in series [2], the IC50, lay at 10.4 µM.

Consider `COc1ccc(-c2nc(COc3cccc4cc(NS(=O)(=O)C(F)(F)F)ccc34)cs2)cc1` [Example 53, C,C,C-Trifluoro-N-{5-[2-(4-methoxy-phenyl)-thiazol-4-ylmethoxy]-naphthalen-2-yl}-methanesulfonamide], for which the melting point lay within 151 to 152 °C. Further, the IC50 in series [2] (Rattus norvegicus, Hepatocyte) turned out to be 9.5 µM.

Regarding `O=S(=O)(Nc1ccc2c(OCc3csc(-c4ccc(F)cc4F)n3)cccc2c1)C(F)(F)F` [Example 46, N-{5-[2-(2,4-Difluoro-phenyl)-thiazol-4-ylmethoxy]-naphthalen-2-yl}-C,C,C-trifluoro-methanesulfonamide], the melting point is 191 to 192 °C. In addition, in series [2] (Rattus norvegicus, Hepatocyte), half-maximal inhibition (IC50) was put at 2.8 µM.

`CC(C)(C)c1ccc(-c2ccc(COc3cccc4cc(NS(=O)(=O)C(F)(F)F)ccc34)c(F)c2)cc1` [Example 6, N-[5-(4′-tert-Butyl-3-fluoro-biphenyl-4-ylmethoxy)-naphthalen-2-yl]-C,C,C-trifluoro-methanesulfonamide] came in with a melting point of 162 to 164 °C.

For the compound `COC1(F)C=CC(c2cccc(COc3cccc4cc(NS(=O)(=O)C(F)(F)F)ccc34)c2)=CC1` (stereo not drawn) [Example 12, N-[5-(4′-Fluoro-4′-methoxy-biphenyl-3-ylmethoxy)-naphthalen-2-yl]-C,C,C-trifluoro-methanesulfonamide], the melting point was in the range of 125 to 127 °C.

As for `O=S(=O)(Nc1ccc2c(OCc3csc(-c4ccc(C(F)(F)F)cn4)n3)cccc2c1)C(F)(F)F` [Example 52, C,C,C-Trifluoro-N-{5-[2-(5-trifluoromethyl-pyridin-2-yl)-thiazol-4-yl-methoxy]naphthalen-2-yl}-methanesulfonamide], the melting point lay within 197 to 198 °C. Also, 12 µM corresponded to half-maximal inhibition in series [2] (Rattus norvegicus, Hepatocyte) (IC50).

`O=S(=O)(Nc1ccc2c(OCc3csc(-c4ccc(Cl)cc4)n3)cccc2c1)C(F)(F)F` [Example 44, N-{5-[2-(4-Chloro-phenyl)-thiazol-4-ylmethoxy]-naphthalen-2-yl}-C,C,C-trifluoro-methanesulfonamide] returned a melting point of 151 to 153 °C.

In turn, `O=S(=O)(Nc1ccc2c(OCc3nc(-c4cccc(C(F)(F)F)c4)no3)cccc2c1)C(F)(F)F` [Example 66, C,C,C-Trifluoro-N-{5-[3-(3-trifluoromethyl-phenyl)-[1,2,4]oxadiazol-5-ylmethoxy]-naphthalen-2-yl}-methanesulfonamide] showed a melting point of 155 to 156 °C.

In turn, `O=S(=O)(Nc1ccc2c(OCc3csc(-c4ccccc4Cl)n3)cccc2c1)C(F)(F)F` [Example 54, N-{5-[2-(2-Chloro-phenyl)-thiazol-4-ylmethoxy]-naphthalen-2-yl}-C,C,C-trifluoromethanesulfonamide] yielded a melting point of 128 to 129 °C.

`O=S(=O)(Nc1ccc2c(OCc3coc(-c4ccc(C(F)(F)F)cc4)n3)cccc2c1)C(F)(F)F` [Example 87, N-{5-[2-(4-trifluoromethyl-phenyl)-oxazol-4-ylmethoxy]naphthalen-2-yl}C,C,C-trifluoromethanesulfonamide] came in with a melting point of 205 to 207 °C.

As for `O=S(=O)(Nc1ccc2c(OCc3ccc(-c4ccccc4)cc3Cl)cccc2c1)C(F)(F)F` [Example 29, N-[5-(3-Chloro-biphenyl-4-ylmethoxy)-naphthalen-2-yl]-C,C,C-trifluoro-methanesulfonamide], the melting point lay within 131 to 134 °C.

Consider `O=S(=O)(Nc1ccc2c(OCc3nc(-c4ccc(F)cc4)no3)cccc2c1)C(F)(F)F` [Example 65, C,C,C-Trifluoro-N-{5-[3-(4-fluoro-phenyl)-[1,2,4]oxadiazol-5-yl-methoxy]-naphthalen-2-yl}-methanesulfonamide], for which the melting point fell in the range of 131 to 132 °C.
